Data reported in US10836720B2, “Inhibitors of integrin alpha 5 beta 1 and methods of use” (The Regents of the University of California, priority 2016, dated 2020).

Legend:
[1] = biological target: alphavbeta1 (Homo sapiens, UniProt G3HZ55+P06756); assay: Cell adhesion assay, alphavbeta1-mediated (CHO cells transfected with human alphav adhering to the latency associated peptide of TGF-beta); format: cell-based; settings: adhesion to LAP of TGF-beta
Method: The blockade of integrin alpha 5 beta 1 provides a novel target for the treatment of asthma. […] The intracellular actin-myosin cross-bridging pathway serves as a useful target. Modulating the interactions of the cell and the extracellular matrix impairs the ability of the smooth muscle to transmit tension effectively. The blockade of integrin alpha 5 beta 1 was tested in vitro with human cell lines as well as in vivo with a mouse model of airway hyperresponsiveness. Novel compounds as described herein, and identified in Table 1, have been synthesized and tested in vitro for their ability to inhibit cell adhesion mediated by either alpha5beta1 (adhesion of the colon carcinoma cell line SW480 to fibronectin, a response that is entirely dependent on binding of alpha5beta1 to fibronectin), or alphavbeta1 (adhesion of Chinese Hamster Ovary cells transfected with human alphav to the latency associated peptide of transforming growth factor beta, a response that is entirely dependent on binding of alphavbeta1 to LAP).

[2] = biological target: alpha5beta1 (Homo sapiens (Human), UniProt P05556+P08648); assay: Cell adhesion assay, alpha5beta1-mediated (colon carcinoma cell line SW480 adhering to fibronectin); format: cell-based; settings: SW480 cells
Method: The blockade of integrin alpha 5 beta 1 was tested in vitro with human cell lines as well as in vivo with a mouse model of airway hyperresponsiveness.

Sequence of alphavbeta1 (G3HZ55 21-798 limits assumed): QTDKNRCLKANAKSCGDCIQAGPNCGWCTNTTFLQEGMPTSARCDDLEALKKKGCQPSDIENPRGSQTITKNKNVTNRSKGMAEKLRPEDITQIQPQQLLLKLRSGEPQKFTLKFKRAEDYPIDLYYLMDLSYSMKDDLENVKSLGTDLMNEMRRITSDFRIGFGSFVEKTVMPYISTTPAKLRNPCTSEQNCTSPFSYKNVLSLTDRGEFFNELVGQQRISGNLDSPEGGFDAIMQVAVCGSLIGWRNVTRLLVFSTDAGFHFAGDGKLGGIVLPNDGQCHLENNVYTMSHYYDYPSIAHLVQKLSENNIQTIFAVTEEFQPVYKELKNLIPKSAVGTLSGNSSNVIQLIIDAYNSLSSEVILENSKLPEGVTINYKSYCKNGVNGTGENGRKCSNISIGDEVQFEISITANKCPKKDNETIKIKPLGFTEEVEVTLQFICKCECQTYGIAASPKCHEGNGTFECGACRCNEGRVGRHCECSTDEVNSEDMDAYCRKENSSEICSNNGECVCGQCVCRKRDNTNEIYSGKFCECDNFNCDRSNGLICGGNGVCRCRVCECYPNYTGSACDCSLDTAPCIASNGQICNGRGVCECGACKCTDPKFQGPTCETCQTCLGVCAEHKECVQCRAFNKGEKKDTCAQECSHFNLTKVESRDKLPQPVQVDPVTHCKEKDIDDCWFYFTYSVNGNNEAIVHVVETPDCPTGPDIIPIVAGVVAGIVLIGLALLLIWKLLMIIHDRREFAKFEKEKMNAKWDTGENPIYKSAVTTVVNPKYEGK
Sequence of alphavbeta1 (P06756 31-889 limits assumed): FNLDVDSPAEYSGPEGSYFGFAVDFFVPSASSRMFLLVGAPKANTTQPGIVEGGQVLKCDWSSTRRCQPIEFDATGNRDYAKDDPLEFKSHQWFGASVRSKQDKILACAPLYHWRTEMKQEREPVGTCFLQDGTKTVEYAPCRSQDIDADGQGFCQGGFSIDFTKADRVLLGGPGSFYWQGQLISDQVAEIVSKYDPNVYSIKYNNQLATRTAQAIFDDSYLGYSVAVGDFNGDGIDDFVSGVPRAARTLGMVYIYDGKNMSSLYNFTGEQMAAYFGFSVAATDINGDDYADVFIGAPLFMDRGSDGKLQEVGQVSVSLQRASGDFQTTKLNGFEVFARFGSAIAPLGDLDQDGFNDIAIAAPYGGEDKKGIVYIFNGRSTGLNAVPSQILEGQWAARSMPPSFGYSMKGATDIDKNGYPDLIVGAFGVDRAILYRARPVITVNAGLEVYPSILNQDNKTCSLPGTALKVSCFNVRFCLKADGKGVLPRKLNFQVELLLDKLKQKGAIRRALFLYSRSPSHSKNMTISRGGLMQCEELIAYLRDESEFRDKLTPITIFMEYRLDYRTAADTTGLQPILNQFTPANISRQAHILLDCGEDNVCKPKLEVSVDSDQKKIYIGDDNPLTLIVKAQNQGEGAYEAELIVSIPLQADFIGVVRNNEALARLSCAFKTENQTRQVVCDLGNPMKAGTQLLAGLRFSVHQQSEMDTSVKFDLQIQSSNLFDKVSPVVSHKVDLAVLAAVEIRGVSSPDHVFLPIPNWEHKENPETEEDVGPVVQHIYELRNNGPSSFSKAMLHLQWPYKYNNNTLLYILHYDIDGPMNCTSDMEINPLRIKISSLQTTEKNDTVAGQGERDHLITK
Sequence of alphavbeta1 (P06756 891-1048 limits assumed): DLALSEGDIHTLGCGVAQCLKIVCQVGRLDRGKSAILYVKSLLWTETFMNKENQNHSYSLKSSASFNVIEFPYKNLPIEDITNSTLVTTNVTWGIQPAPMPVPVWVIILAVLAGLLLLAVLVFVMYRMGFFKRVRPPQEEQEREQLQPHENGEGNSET
Sequence of alpha5beta1 (P08648 42-894): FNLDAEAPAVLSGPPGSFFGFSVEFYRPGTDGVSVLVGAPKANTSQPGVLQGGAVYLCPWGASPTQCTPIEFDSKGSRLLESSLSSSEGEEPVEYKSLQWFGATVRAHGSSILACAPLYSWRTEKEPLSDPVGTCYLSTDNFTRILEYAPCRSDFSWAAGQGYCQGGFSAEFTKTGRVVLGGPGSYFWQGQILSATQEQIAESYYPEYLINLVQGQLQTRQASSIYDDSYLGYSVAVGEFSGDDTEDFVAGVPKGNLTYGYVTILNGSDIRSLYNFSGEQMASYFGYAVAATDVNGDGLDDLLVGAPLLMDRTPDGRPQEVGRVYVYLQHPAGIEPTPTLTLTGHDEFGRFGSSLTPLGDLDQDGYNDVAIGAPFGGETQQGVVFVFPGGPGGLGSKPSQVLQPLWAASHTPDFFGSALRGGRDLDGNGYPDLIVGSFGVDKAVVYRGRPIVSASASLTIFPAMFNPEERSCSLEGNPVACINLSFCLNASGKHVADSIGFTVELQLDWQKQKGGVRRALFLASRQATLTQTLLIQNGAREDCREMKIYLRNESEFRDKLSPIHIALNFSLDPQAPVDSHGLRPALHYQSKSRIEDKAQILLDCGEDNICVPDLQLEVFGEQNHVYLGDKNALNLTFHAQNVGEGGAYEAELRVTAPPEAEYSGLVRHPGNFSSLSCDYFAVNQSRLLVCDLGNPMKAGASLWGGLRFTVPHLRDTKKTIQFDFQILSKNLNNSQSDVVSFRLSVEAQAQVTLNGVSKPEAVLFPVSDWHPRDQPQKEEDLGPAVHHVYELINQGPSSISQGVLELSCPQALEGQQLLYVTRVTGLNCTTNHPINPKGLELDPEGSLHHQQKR
Sequence of alpha5beta1 (P08648 895-1049): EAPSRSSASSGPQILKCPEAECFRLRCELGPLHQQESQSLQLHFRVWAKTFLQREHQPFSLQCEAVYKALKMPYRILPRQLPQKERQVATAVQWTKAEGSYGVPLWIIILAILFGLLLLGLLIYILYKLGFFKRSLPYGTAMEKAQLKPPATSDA
Sequence of alpha5beta1 (P05556 21-798): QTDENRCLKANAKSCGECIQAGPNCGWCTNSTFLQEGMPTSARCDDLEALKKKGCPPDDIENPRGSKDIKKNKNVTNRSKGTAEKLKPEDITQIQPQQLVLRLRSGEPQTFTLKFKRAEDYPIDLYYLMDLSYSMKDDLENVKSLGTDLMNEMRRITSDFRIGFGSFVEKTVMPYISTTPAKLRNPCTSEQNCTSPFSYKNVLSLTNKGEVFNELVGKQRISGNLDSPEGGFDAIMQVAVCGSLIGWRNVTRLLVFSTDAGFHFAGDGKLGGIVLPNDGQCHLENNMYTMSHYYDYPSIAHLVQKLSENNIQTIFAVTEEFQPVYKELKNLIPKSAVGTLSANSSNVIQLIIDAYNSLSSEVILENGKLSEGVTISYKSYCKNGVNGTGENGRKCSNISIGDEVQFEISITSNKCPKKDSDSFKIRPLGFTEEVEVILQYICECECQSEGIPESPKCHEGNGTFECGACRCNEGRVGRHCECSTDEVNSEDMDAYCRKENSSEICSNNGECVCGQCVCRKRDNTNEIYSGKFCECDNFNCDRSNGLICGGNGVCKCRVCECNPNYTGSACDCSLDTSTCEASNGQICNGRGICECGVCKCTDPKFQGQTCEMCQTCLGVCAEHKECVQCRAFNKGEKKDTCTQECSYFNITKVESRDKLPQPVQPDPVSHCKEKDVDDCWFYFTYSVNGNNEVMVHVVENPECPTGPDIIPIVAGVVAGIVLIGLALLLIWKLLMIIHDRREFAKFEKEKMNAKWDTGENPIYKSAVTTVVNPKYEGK

IC50 [2] [nM]	Structure (SMILES)	IC50 [1] [nM]
< 100	N=C(N)Nc1cccc(C(=O)NNC(=O)NC[C@H](NC(=O)[C@@H]2CCCN2S(=O)(=O)c2ccccc2)C(=O)O)c1 [HIJ-1099, (S)-3-(2-(3-guanidinobenzoyl)hydrazine-1-carboxamido)-2-((S)-1-(phenylsulfonyl)pyrrolidine-2-carboxamido)propanoic acid]	100 to 10000
< 100	N=C(N)Nc1cc(NC(=O)CCCN)cc(C(=O)NCC(=O)NC[C@H](NC(=O)[C@@H]2CCCN2S(=O)(=O)c2ccccc2)C(=O)O)c1 [HIJ-1437, (S)-3-(2-(3-(4-aminobutanamido)-5-guanidinobenzamido)acetamido)-2-((S)-1-(phenylsulfonyl)pyrrolidine-2-carboxamido)propanoic acid]	–
< 100	N=C(N)Nc1cc(NC(=O)CCCNC(=O)C23CC4CC(CC(C4)C2)C3)cc(C(=O)NCC(=O)NC[C@H](NC(=O)[C@@H]2CCCN2S(=O)(=O)c2ccccc2)C(=O)O)c1 [HIJ-1483, (2S)-3-(2-(3-(4-((1s,3s)-adamantane-1-carboxamido)butanamido)-5-guanidinobenzamido)acetamido)-2-((S)-1-(phenylsulfonyl)pyrrolidine-2-carboxamido)propanoic acid]	–

Second part, the compound before the results:

Structure (SMILES)	IC50 [2] [nM]	IC50 [1] [nM]
N=C(N)NCCCCNC(=O)NC[C@H](NC(=O)[C@@H]1CCCN1S(=O)(=O)c1ccccc1)C(=O)O [HIJ-1016, (S)-3-(3-(4-guanidinobutyl)ureido)-2-((S)-1-(phenylsulfonyl)pyrrolidine-2-carboxamido)propanoic acid]	100 to 10000	< 100
N=C(N)NCCCCCNC(=O)NC[C@H](NC(=O)[C@@H]1CCCN1S(=O)(=O)c1ccccc1)C(=O)O [HIJ-1017, (S)-3-(3-(5-guanidinopentyl)ureido)-2-((S)-1-(phenylsulfonyl)pyrrolidine-2-carboxamido)propanoic acid]	100 to 10000	< 100
N=C(N)NCCCCCCNC(=O)NC[C@H](NC(=O)[C@@H]1CCCN1S(=O)(=O)c1ccccc1)C(=O)O [HIJ-1018, (S)-3-(3-(6-guanidinohexyl)ureido)-2-((S)-1-(phenylsulfonyl)pyrrolidine-2-carboxamido)propanoic acid]	100 to 10000	< 100
N=C(N)NCCCCCC(=O)NC[C@H](NC(=O)[C@@H]1CCCN1S(=O)(=O)c1ccccc1)C(=O)O [HIJ-1083, (S)-3-(6-guanidinohexanamido)-2-((S)-1-(phenylsulfonyl)pyrrolidine-2-carboxamido)propanoic acid]	100 to 10000	100 to 10000
O=C(CNC(=O)c1cccc(Nc2ccccn2)c1)NC[C@H](NC(=O)[C@@H]1CCCN1S(=O)(=O)c1ccccc1)C(=O)O [HIJ-1093]	100 to 10000	100 to 10000
N=C(N)Nc1cccc(C(=O)NCC(=O)NC[C@H](NC(=O)[C@@H]2CCCN2S(=O)(=O)c2ccccc2)C(=O)O)c1 [HIJ-1094, (S)-3-(2-(3-guanidinobenzamido)acetamido)-2-((S)-1-(phenylsulfonyl)pyrrolidine-2-carboxamido)propanoic acid]	< 100	< 100
N=C(N)NCCCCC(=O)N[C@@H](CCCCNC(=S)Nc1ccc(C2c3ccc(O)cc3OC3=CC(=O)C=CC32)c(C(=O)O)c1)C(=O)NC[C@H](NC(=O)[C@@H]1CCCN1S(=O)(=O)c1ccccc1)C(=O)O (stereo partly drawn) [HIJ-1216, 5-(3-((S)-6-(((S)-2-carboxy-2-((S)-1-(phenylsulfonyl)pyrrolidine-2-carboxamido)ethyl)amino)-5-(5-guanidinopentanamido)-6-oxohexyl)thioureido)-2-(6-hydroxy-3-oxo-9,9a-dihydro-3H-xanthen-9-yl)benzoic acid]	> 10000	> 10000
